# From patent publication US20260049088A1, “TRICYCLIC HETEROCYCLIC DERIVATIVES, COMPOSITIONS AND USES THEREOF” (Danatlas Pharmaceuticals Co., Ltd., priority 2023, published 2026)
# Molecular target: T1, hPARG (Homo sapiens, UniProt Q86W56)
# T1 construct: made in house; host or cells: E. coli
# Experiment: PARG enzymatic activity assay (HTRF)
# Assay type: biochemical
# Conditions: C-terminal His6-tag hPARG 65 pM, biotinylated-NAD ribosylated PARP1 substrate 8 nM
# How it was run: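 His6-tagged hPARG from E. coli (65 pM final) preincubated 60 min RT with compound (10-point 4-fold dilution), then 8 nM biotinylated NAD-ribosylated PARP1 added for 10 min RT in Tris pH 7.4 buffer with EDTA, EGTA, DTT, KCl. HTRF detection (Eu-streptavidin/anti-His XL665, 620/665 nm); IC50 from 4-parameter fit against DMSO and no-enzyme controls.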
# T1 sequence (Q86W56 whole entry): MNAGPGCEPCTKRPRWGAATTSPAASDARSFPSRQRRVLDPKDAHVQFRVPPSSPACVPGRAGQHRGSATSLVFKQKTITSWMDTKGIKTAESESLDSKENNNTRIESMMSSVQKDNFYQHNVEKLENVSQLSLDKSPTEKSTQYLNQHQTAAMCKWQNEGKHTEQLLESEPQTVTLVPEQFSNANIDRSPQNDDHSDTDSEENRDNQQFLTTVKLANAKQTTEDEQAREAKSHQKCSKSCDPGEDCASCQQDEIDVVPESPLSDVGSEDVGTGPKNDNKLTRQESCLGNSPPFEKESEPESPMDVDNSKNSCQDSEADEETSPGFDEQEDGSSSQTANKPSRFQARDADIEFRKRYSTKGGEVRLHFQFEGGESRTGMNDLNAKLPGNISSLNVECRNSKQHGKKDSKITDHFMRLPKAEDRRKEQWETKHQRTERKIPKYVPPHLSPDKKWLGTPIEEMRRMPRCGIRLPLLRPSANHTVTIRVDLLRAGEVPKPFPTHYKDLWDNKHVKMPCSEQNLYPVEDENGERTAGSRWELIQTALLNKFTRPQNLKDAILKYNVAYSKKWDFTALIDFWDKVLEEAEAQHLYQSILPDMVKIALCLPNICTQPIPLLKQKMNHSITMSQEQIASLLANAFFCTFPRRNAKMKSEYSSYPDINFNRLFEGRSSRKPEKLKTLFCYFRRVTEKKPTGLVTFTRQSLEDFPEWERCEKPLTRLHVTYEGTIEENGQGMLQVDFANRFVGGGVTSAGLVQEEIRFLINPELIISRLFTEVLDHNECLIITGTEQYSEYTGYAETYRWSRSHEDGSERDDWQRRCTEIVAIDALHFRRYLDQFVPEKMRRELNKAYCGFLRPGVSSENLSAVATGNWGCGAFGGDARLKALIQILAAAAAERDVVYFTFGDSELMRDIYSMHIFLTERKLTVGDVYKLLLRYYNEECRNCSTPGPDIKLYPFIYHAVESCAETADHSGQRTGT
row,IC50 [nM],SMILES
1,≤ 100,"CC(C)(O)C#Cc1ncnc2c1c1ccc(S(=O)(=O)NC3(C#N)CC3)cc1n2-c1nnc(C(F)F)s1 [Example 88, N-(1-Cyanocyclopropyl)-9-(5-(difluoromethyl)-1,3,4-thiadiazol-2-yl)-4-(3-hydroxy-3-methylbut-1-yn-1-yl)-9H-pyrimido[4,5-b]indole-7-sulfonamide]"
2,100 to 1000,"CC(C)(O)CCc1ncnc2c1c1ccc(S(=O)(=O)NC3(C#N)CC3)cc1n2-c1nnc(C(F)F)s1 [Example 89, N-(1-Cyanocyclopropyl)-9-(5-(difluoromethyl)-1,3,4-thiadiazol-2-yl)-4-(3-hydroxy-3-methylbutyl)-9H-pyrimido[4,5-b]indole-7-sulfonamide]"
3,100 to 1000,"CN1CCOCC1COc1ncnc2c1c1ccc(S(=O)(=O)NC3(C#N)CC3)cc1n2-c1nnc(C(F)F)s1 (stereo not shown) [Example 90, N-(1-Cyanocyclopropyl)-9-(5-(difluoromethyl)-1,3,4-thiadiazol-2-yl)-4-((4-methylmorpholin-3-yl)methoxy)-9H-pyrimido[4,5-b]indole-7-sulfonamide]"
4,≤ 100,"N#CC1(NS(=O)(=O)c2ccc3c4c(OCCN5CCCS5(=O)=O)ncnc4n(-c4nnc(C(F)F)s4)c3c2)CC1 [Example 91, N-(1-Cyanocyclopropyl)-9-(5-(difluoromethyl)-1,3,4-thiadiazol-2-yl)-4-(2-(1,1-dioxidoisothiazolidin-2-yl)ethoxy)-9H-pyrimido[4,5-b]indole-7-sulfonamide]"
5,100 to 1000,"N#CC1(NS(=O)(=O)c2ccc3c4c(OCC5COCCN5)ncnc4n(-c4nnc(C(F)F)s4)c3c2)CC1 (stereo not shown) [Example 92, N-(1-cyanocyclopropyl)-9-(5-(difluoromethyl)-1,3,4-thiadiazol-2-yl)-4-(morpholin-3-ylmethoxy)-9H-pyrimido[4,5-b]indole-7-sulfonamide]"
6,≤ 100,"CCN[C@@H]1CCN(c2ncnc3c2c2ccc(S(=O)(=O)NC4(C#N)CC4)cc2n3-c2nnc(C(F)F)s2)C[C@@H]1F [Example 93, N-(1-Cyanocyclopropyl)-9-(5-(difluoromethyl)-1,3,4-thiadiazol-2-yl)-4-((3S,4R)-4-(ethylamino)-3-fluoropiperidin-1-yl)-9H-pyrimido[4,5-b]indole-7-sulfonamide]"
7,≤ 100,"C[C@H]1CN(c2ncnc3c2c2ccc(S(=O)(=O)NC4(C#N)CC4)cc2n3-c2nnc(C(F)F)s2)C[C@H](C)N1 [Example 94, N-(1-Cyanocyclopropyl)-9-(5-(difluoromethyl)-1,3,4-thiadiazol-2-yl)-4-((3S,5S)-3,5-dimethylpiperazin-1-yl)-9H-pyrimido[4,5-b]indole-7-sulfonamide]"
